According to the supplement of paper PMC4862054:
Values joined by “and” are separate entries in the source; they are usually repeats but may differ in a detail not shown here. Equal values may be shown once.

Key:
Assay in all cases: normalised viability (% of control), CellTiter-Blue; higher = more viable cells (about 100 = DMSO control)
Conditions in all cases: incubation time: 72 h
CAL-148 [1] = tested on: CAL-148
Description: (§1)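 DSRT, CellTiter-Blue viability, 72 h incubation. Signal is normalised to DMSO and benzethonium chloride controls. Value is the normalised response at dose 9.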

CAL-51 [2] = tested on: CAL-51
Description: as §1

CAL-85-1 [3] = tested on: CAL-85-1
Description: as §1

DU-4475 [4] = tested on: DU-4475
Description: as §1

HDQ-P1 [5] = tested on: HDQ-P1
Description: as §1

MDA-MB-453 [6] = tested on: MDA-MB-453
Description: as §1

CAL-148 [7] = tested on: CAL-148; remark: listed apart in the source
Description: (§2)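 DSRT, CellTiter-Blue viability, 72 h incubation. Signal is normalised to DMSO and benzethonium chloride controls. Value is the normalised response at dose 8.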

CAL-51 [8] = tested on: CAL-51; remark: listed apart in the source
Description: as §2

CAL-85-1 [9] = tested on: CAL-85-1; remark: listed apart in the source
Description: as §2

DU-4475 [10] = tested on: DU-4475; remark: listed apart in the source
Description: as §2

HDQ-P1 [11] = tested on: HDQ-P1; remark: listed apart in the source
Description: as §2

MDA-MB-453 [12] = tested on: MDA-MB-453; remark: listed apart in the source
Description: as §2

SMILES | normalised viability (CAL-148 [1]) | normalised viability (CAL-51 [2]) | normalised viability (CAL-85-1 [3]) | normalised viability (DU-4475 [4]) | normalised viability (HDQ-P1 [5]) | normalised viability (MDA-MB-453 [6]) | normalised viability (CAL-148 [7]) | normalised viability (CAL-51 [8]) | normalised viability (CAL-85-1 [9]) | normalised viability (DU-4475 [10]) | normalised viability (HDQ-P1 [11]) | normalised viability (MDA-MB-453 [12])
C[C@@H](CN1CC(=O)NC(=O)C1)N1CC(=O)NC(=O)C1 [Dexrazoxane] (10000 nM) | 96.2% | 92.9% | 93.7% | 102% | 85.2% | 100% | – | – | – | – | – | –
COc1cc2c(Oc3ccc(NC(=O)C4(C(=O)Nc5ccc(F)cc5)CC4)cc3F)ccnc2cc1OCCCN1CCOCC1 [Foretinib] (300 nM) | – | – | – | – | – | – | 91.6% | 68.5% | 84% | 98.8% | 60.9% | 75.4%
NC(=O)NO [Hydroxyurea] (30000 nM) | – | – | – | – | – | – | 103% | 111% | 89.1% | 104% | 104% | 93.1%
O=NN(CCCl)C(=O)NC1CCCCC1 [Lomustine] (3000 nM) | – | – | – | – | – | – | 103% | 113% | 93.8% | 89.1% | 99.7% | 112%
O=C(O)CC[C@H]1CC[C@@](c2cc(F)ccc2F)(S(=O)(=O)c2ccc(Cl)cc2)CC1 [MK-0752] (300 nM) | – | – | – | – | – | – | 95.3% | 119% | 94.6% | 115% | 114% | 114%
NC1(c2ccc(-c3nc4ccn5c(=O)[nH]nc5c4cc3-c3ccccc3)cc2)CCC1 [MK-2206] (300 nM) | – | – | – | – | – | – | 91.3% | 98.8% | 82.9% | 100% | 77.5% | 73%
NC(=O)c1cccc2cn(-c3ccc([C@@H]4CCCNC4)cc3)nc12 [MK-4827] (3000 nM) | – | – | – | – | – | – | 73.5% | 48.8% | 85.8% | 58.6% | 91.3% | 101%
N[C@@H](Cc1ccc(N(CCCl)CCCl)cc1)C(=O)O [Melphalan] (297 nM) | – | – | – | – | – | – | 100% | 106% | 97.9% | 88.9% | 100% | 110%
N[C@@H](Cc1ccc(N(CCCl)CCCl)cc1)C(=O)O [Melphalan] (990 nM) | 74.2% | 68.8% | 72.1% | 62.4% | 94% | 95.8% | – | – | – | – | – | –
Cc1c(C(=O)Nc2ccc(N3C[C@@H](C)O[C@@H](C)C3)nc2)cccc1-c1ccc(OC(F)(F)F)cc1 [NVP-LDE225] (3000 nM) | – | – | – | – | – | – | 107% | 101% | 109% | 121% | 84.1% | 75.2%
Cc1c(C(=O)Nc2ccc(N3C[C@@H](C)O[C@@H](C)C3)nc2)cccc1-c1ccc(OC(F)(F)F)cc1 [NVP-LDE225] (10000 nM) | 121% | 92.5% | 98.4% | 110% | 127% | 82.8% | – | – | – | – | – | –
O=C(c1cc(Cc2n[nH]c(=O)c3ccccc23)ccc1F)N1CCN(C(=O)C2CC2)CC1 [Olaparib] (3000 nM) | – | – | – | – | – | – | 64.2% | 68.9% | 71.4% | 72.4% | 100% | 93%
CO[C@H](C(=O)[C@@H](O)[C@@H](C)O)[C@@H]1Cc2cc3cc(O[C@H]4C[C@@H](O[C@@H]5C[C@@H](O)[C@H](O)[C@@H](C)O5)[C@H](O)[C@@H](C)O4)c(C)c(O)c3c(O)c2C(=O)[C@H]1O[C@H]1C[C@@H](O[C@@H]2C[C@@H](O)[C@@H](O[C@@H]3C[C@](C)(O)[C@H](O)[C@@H](C)O3)[C@@H](C)O2)[C@H](O)[C@@H](C)O1 [Plicamycin] (3000 nM) | – | – | – | – | – | – | 5.24% and 3.76% | 3.09% and 4.26% | 5.82% and 5.38% | 2.08% and 0.69% | 23.8% and 15.9% | 7% and 7.5%
C[C@]12C=CC(=O)C=C1CC[C@@H]1[C@@H]2C(=O)C[C@@]2(C)[C@H]1CC[C@]2(O)C(=O)CO [Prednisone] (3000 nM) | – | – | – | – | – | – | 94.2% | 102% | 99.3% | 104% | 120% | 93.5%
CO[C@H]1C[C@@H]2CC[C@@H](C)[C@@](O)(O2)C(=O)C(=O)N2CCCC[C@H]2C(=O)O[C@H]([C@H](C)C[C@@H]2CC[C@@H](O)[C@H](OC)C2)CC(=O)[C@H](C)/C=C(\C)[C@@H](O)[C@@H](OC)C(=O)[C@H](C)C[C@H](C)/C=C/C=C/C=C/1C [Sirolimus] (300 nM) | – | – | – | – | – | – | 39.1% | 31.1% | 59.8% | 63.7% | 58.8% | 31.6%
CO[C@H]1C[C@@H]2CC[C@@H](C)[C@@](O)(O2)C(=O)C(=O)N2CCCC[C@H]2C(=O)O[C@H]([C@H](C)C[C@@H]2CC[C@@H](O)[C@H](OC)C2)CC(=O)[C@H](C)/C=C(\C)[C@@H](O)[C@@H](OC)C(=O)[C@H](C)C[C@H](C)/C=C/C=C/C=C/1C [Sirolimus] (1000 nM) | 44% | 26.1% | 59.3% | 59.9% | 70.3% | 25.3% | – | – | – | – | – | –
CN1CCN(c2nc(C3=C(c4c[nH]c5ccccc45)C(=O)NC3=O)c3ccccc3n2)CC1 [Sotrastaurin] (3000 nM) | – | – | – | – | – | – | 116% | 97.3% | 141% | 95.9% | 126% | 93.8%
CC/C(=C(\c1ccccc1)c1ccc(OCCN(C)C)cc1)c1ccccc1 [Tamoxifen] (3000 nM) | – | – | – | – | – | – | 117% | 99.1% | 102% | 106% | 100% | 89.7%
COc1cc2c(N3CCN(C(=O)Nc4ccc(OC(C)C)cc4)CC3)ncnc2cc1OCCCN1CCCCC1 [Tandutinib] (300 nM) | – | – | – | – | – | – | 94.4% | 115% | 95.7% | 109% | 93.5% | 102%
C[C@@H](C(=O)O)c1ccc(-c2ccccc2)c(F)c1 [Tarenflurbil] (3000 nM) | – | – | – | – | – | – | 94.4% | 113% | 88.8% | 115% | 93% | 79.5%
Cn1nnc2c(C(N)=O)ncn2c1=O [Temozolomide] (3000 nM) | – | – | – | – | – | – | 88.8% | 93.6% | 97.3% | 100% | 103% | 104%
CC[C@@H]1C(=O)N(C)c2cnc(Nc3ccc(C(=O)N[C@H]4CC[C@H](N5CCN(CC6CC6)CC5)CC4)cc3OC)nc2N1C(C)C [Volasertib] (300 nM) | – | – | – | – | – | – | 26.6% | 9.3% | 64.6% | 18.6% | 59.4% | 34.3%
